Where two headings read alike, the source gives them in different places.
How the values were obtained:
[1] = test system: T. gondii RH strain (RH-Tub-eYFP) tachyzoites; test: microbe, parasite or virus in culture; type: cell-based, Toxoplasma gondii; conditions: 72 h; for percent parasite growth at 2 µg/mL: Toxoplasma gondii
[2] = test system: P. falciparum 3D7 parasites; test: P. falciparum growth inhibition assay, 2-cycle (120 h treatment), delayed-death screen and dose-response; type: cell-based, Plasmodium falciparum; conditions: 120 h; for activity at 2 µg/mL: Plasmodium falciparum, 3D7, 120 h
[3] = test system: P. falciparum 3D7 parasites; test: P. falciparum growth inhibition assay, 1-cycle (72 h treatment), SYBR DNA staining (library screen at 2 μg/mL and dose-response); type: cell-based, Plasmodium falciparum; conditions: 72 h; for activity at 2 µg/mL: Plasmodium falciparum, 3D7, 72 h
[4] = library screen at 2 μg/mL, % growth, replicate 1
[5] = library screen at 2 μg/mL, % growth, replicate 2
[6] = T. gondii, 2 μg/mL, values are growth (% of control)
[7] = T. gondii, parasite screen 2 μg/mL, % growth, replicate 1
[8] = T. gondii, parasite screen 2 μg/mL, % growth, replicate 2
[9] = P. falciparum, parasite screen 2 μg/mL, % growth, replicate 1
[10] = P. falciparum, parasite screen 2 μg/mL, % growth, replicate 2
[11] = T. gondii, screen at 2 μg/mL, replicate 1, read-out: Tg_72h_%Growth_Rep1
[12] = T. gondii, screen at 2 μg/mL, replicate 2, read-out: Tg_72h_%Growth_Rep2
[13] = P. falciparum, screen at 2 μg/mL, replicate 1, read-out: Pf_120h_%Growth_Rep1
[14] = P. falciparum, screen at 2 μg/mL, replicate 2, read-out: Pf_120h_%Growth_Rep2
[15] = P. falciparum, screen at 2 μg/mL, replicate 1, read-out: Pf_72h_%Growth_Rep1
[16] = P. falciparum, screen at 2 μg/mL, replicate 2, read-out: Pf_72h_%Growth_Rep2
[17] = P. falciparum, screen at 2 μg/mL, replicate 1
[18] = P. falciparum, screen at 2 μg/mL, replicate 2

CC(=O)OC[C@]12CCC(C)=C[C@H]1O[C@@H]1[C@H](O)[C@@H](O)[C@@]2(C)[C@]12CO2 [Acetoxyscirpenol, 15-] showed a Tg_72h_%Growth_Rep1 [1, 4] of -2.14%, a Tg_72h_%Growth_Rep2 [1, 5] of 0.34% and a Pf_120h_%Growth_Rep1 [2, 4] of 8.73%. For the same compound, the Pf_120h_%Growth_Rep2 [2, 5] was 7.76%, the Pf_72h_%Growth_Rep1 [3, 4] was 9.02% and the Pf_72h_%Growth_Rep2 [3, 5] was 0.50%.

For CCCCC[C@@H](O)[C@H]1C(=O)O[C@H](C)[C@@H](O)/C=C/C=C/C=C/C=C/C=C(\C)[C@@H](O)C[C@H](O)C[C@H](O)C[C@H](O)C[C@H](O)C[C@H](O)C[C@@H]1O [Filipin III], the percent parasite growth at 2 µg/mL ([1]; library screen at 2 μg/mL, % growth, replicate 1, read-out: Tg_72h_%Growth_Rep1) was 120%, the percent parasite growth at 2 µg/mL ([1]; library screen at 2 μg/mL, % growth, replicate 2, read-out: Tg_72h_%Growth_Rep2) was 104% and the activity at 2 µg/mL ([2]; library screen at 2 μg/mL, % growth, replicate 1, read-out: Pf_120h_%Growth_Rep1) was 97.4%. It also gave an activity at 2 µg/mL ([2]; library screen at 2 μg/mL, % growth, replicate 2, read-out: Pf_120h_%Growth_Rep2) of 99.7%, an activity at 2 µg/mL ([3]; library screen at 2 μg/mL, % growth, replicate 1, read-out: Pf_72h_%Growth_Rep1) of 83.6% and an activity at 2 µg/mL ([3]; library screen at 2 μg/mL, % growth, replicate 2, read-out: Pf_72h_%Growth_Rep2) of 89.2%.

In the case of Cc1cc2nc3c(=O)[nH]c(=O)nc-3n(C[C@H](O)[C@H](O)[C@H](O)CO)c2cc1N(C)C [Roseoflavin], the Mean ([1]; T. gondii, 2 μg/mL, mean of both replicates, growth (% of control)) is reported as 28.14, the “Replicate 1” value [1, 6] is reported as 40.04 and the “Replicate 2” value [1, 6] is reported as 16.23. For the same compound, the Tg_72h_%Growth_Rep1 [1, 7] was 40.04%, the Tg_72h_%Growth_Rep2 [1, 8] was 16.23% and the Pf_120h_%Growth_Rep1 [2, 9] was 4.42%. For the same compound, the Pf_120h_%Growth_Rep2 [2, 10] was 7.07%, the Pf_72h_%Growth_Rep1 [3, 9] was 11.70% and the Pf_72h_%Growth_Rep2 [3, 10] was 10.95%.

O=C(O)/C=C/c1c[nH]cn1 [Urocanic acid] gave a percent parasite growth at 2 µg/mL [1, 11] of 81%, a percent parasite growth at 2 µg/mL [1, 12] of 70.9% and an activity at 2 µg/mL [2, 13] of 81.3%. The activity at 2 µg/mL [2, 14] was 51.9%, the activity at 2 µg/mL [3, 15] was 79.2% and the activity at 2 µg/mL [3, 16] was 89.3%.

For Viridicatumtoxin, the Tg_72h_%Growth_Rep1 ([1]; T. gondii, screen at 2 μg/mL, replicate 1) was 122.40%, the Tg_72h_%Growth_Rep2 ([1]; T. gondii, screen at 2 μg/mL, replicate 2) was 65.71% and the Pf_120h_%Growth_Rep1 [2, 17] was 6.51%. The Pf_120h_%Growth_Rep2 [2, 18] was 13.13%, the Pf_72h_%Growth_Rep1 [3, 17] was 2.34% and the Pf_72h_%Growth_Rep2 [3, 18] was 2.82%.

Work on CC=C1CN(C)C2Cc3c([nH]c4ccccc34)C(c3cc4[nH]c5c(c4cc3OC)CCN3CC4CC(CC)C3C5(C(=O)OC)C4)CC1C2C(=O)OC (stereo not drawn) [Voacamine] yielded a percent parasite growth at 2 µg/mL [1, 11] of 97%, a percent parasite growth at 2 µg/mL [1, 12] of 101% and an activity at 2 µg/mL [2, 13] of 106%. For the same compound, the activity at 2 µg/mL [2, 14] was 45.2%, the activity at 2 µg/mL [3, 15] was 56.2% and the activity at 2 µg/mL [3, 16] was 62%.

With C=C1CC[C@H](OC(C)=O)C(C)(C)[C@@H]1CC/C(C)=C/CC/C(C)=C/Cc1c(O)cc(C)oc1=O [Sartorypyrone A] the Tg_72h_%Growth_Rep1 [1, 7] was 82.97%, the Tg_72h_%Growth_Rep2 [1, 8] was 82.11% and the Pf_120h_%Growth_Rep1 [2, 9] was 16.39%. It also gave a Pf_120h_%Growth_Rep2 [2, 10] of 52.54%, a Pf_72h_%Growth_Rep1 [3, 9] of 32.17% and a Pf_72h_%Growth_Rep2 [3, 10] of 81.37%.

Compound Spirolaxine has a Tg_72h_%Growth_Rep1 [1, 7] of 20.75%, a Tg_72h_%Growth_Rep2 [1, 8] of 22.73% and a Pf_120h_%Growth_Rep1 [2, 9] of 32.74%. For the same compound, the Pf_120h_%Growth_Rep2 [2, 10] was 18.31%, the Pf_72h_%Growth_Rep1 [3, 9] was 54.30% and the Pf_72h_%Growth_Rep2 [3, 10] was 41.64%.
